The values that follow come from ChEMBL document CHEMBL1133047, “Synthesis of neurotensin(9-13) analogues exhibiting enhanced human neurotensin receptor binding affinities” (Bioorg Med Chem Lett, 2000).

Where a SMILES comes first, the peptide text is derived from it. The star is where a group is joined. X1 = [N-]=[N+]=N[C@@H](CCCNCCN1CCNCC1)C(=O)*; X5 = [N-]=[N+]=N[C@@H](CCCNCCNCCN)C(=O)*; X2 = [N-]=[N+]=N[C@@H](CCCNCCCCN)C(=O)*; X4 = [N-]=[N+]=N[C@@H](CCCNCCCN)C(=O)*; X3 = [N-]=[N+]=N[C@@H](CCCNCCN)C(=O)*

This test has as its target Neurotensin receptor type 1 (Homo sapiens, UniProt P30989). In words: Compound was evaluated for the binding affinity against human neurotensin receptor (hNTR)-1 expressed in CHO cells. The format is cell-based.

Sequence of Neurotensin receptor type 1 (P30989 whole entry): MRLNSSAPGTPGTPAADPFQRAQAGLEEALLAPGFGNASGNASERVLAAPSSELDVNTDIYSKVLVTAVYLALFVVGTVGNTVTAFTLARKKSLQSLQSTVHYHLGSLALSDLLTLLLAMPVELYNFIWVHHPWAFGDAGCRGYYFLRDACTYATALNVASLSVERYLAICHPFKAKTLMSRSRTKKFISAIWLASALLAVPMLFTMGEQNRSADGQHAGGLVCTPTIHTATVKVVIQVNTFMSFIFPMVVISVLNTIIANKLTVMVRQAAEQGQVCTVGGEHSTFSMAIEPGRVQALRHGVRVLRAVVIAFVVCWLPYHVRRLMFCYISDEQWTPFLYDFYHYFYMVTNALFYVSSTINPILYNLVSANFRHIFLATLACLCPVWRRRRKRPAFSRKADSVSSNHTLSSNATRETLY

`CC[C@H](C)[C@H](NC(=O)[C@H](Cc1ccc(O)cc1)NC(=O)[C@@H]1CCCN1C(=O)[C@H](CCCN)NC(=O)[C@@H](N)CCCN)C(=O)N[C@@H](CC(C)C)C(=O)O`: the IC50 (as a rule, the midpoint of a concentration-inhibition curve) stood at 1.3 nM.
The same measure for `CC[C@H](C)[C@H](NC(=O)[C@H](Cc1ccc(O)cc1)NC(=O)[C@@H]1CCCN1C(=O)[C@@H](N)CCCNC(=N)N)C(=O)N[C@@H](CC(C)C)C(=O)O`: 19 nM; for `CC[C@H](C)[C@H](NC(=O)[C@H](Cc1ccc(O)cc1)NC(=O)[C@@H]1CCCN1C(=O)[C@H](CCCNCCN1CCNCC1)N=[N+]=[N-])C(=O)N[C@@H](CC(C)C)C(=O)O` (X1-PYIL-OH): 28 nM.
`CC[C@H](C)[C@H](NC(=O)[C@H](Cc1ccc(O)cc1)NC(=O)[C@@H]1CCCN1C(=O)[C@H](CCCNCCCCN)N=[N+]=[N-])C(=O)N[C@@H](CC(C)C)C(=O)O` (X2-PYIL-OH) showed an IC50 of 9.3 nM.
To `CC[C@H](C)[C@H](NC(=O)[C@H](Cc1ccc(O)cc1)NC(=O)[C@@H]1CCCN1C(=O)[C@H](CCCNCCN)N=[N+]=[N-])C(=O)N[C@@H](CC(C)C)C(=O)O` (X3-PYIL-OH) belongs 14.7 nM; to `CC[C@H](C)[C@H](NC(=O)[C@H](Cc1ccc(O)cc1)NC(=O)[C@@H]1CCCN1C(=O)[C@H](CCCNCCCN)N=[N+]=[N-])C(=O)N[C@@H](CC(C)C)C(=O)O` (X4-PYIL-OH), 3.9 nM; to `CC[C@H](C)[C@H](NC(=O)[C@H](Cc1ccc(O)cc1)NC(=O)[C@@H]1CCCN1C(=O)[C@H](CCCNCCNCCN)N=[N+]=[N-])C(=O)N[C@@H](CC(C)C)C(=O)O` (X5-PYIL-OH), 8.8 nM.
